“Also recorded” adds a separate entry of the source.
Assays:
[1] = biological target: HSV-1 (KOS) dThd kinase in infected HeLa BU cells (Human alphaherpesvirus 1 strain KOS, UniProt P17402); test: Intracellular dThd kinase activity ([14C]dThd phosphorylation); assay type: cell-based, HSV-1 (strain KOS)
Procedure: (§1) Intracellular dThd kinase activity. HeLa S3 or HeLa BU cells (1.5×10^6 /ml) were mock infected or infected with HSV-1 or HSV-2at 3 PFU/cell and incubated at 37° C. for a 1 h adsorption period. The medium was then removed, and the cells were washed with growth medium and resuspended at a cell density of 5×10^5 cells/ml in RPMI 1640 medium supplemented with kanamycin (100 μg/ml) and 5% dialyzed fetal bovine serum. At 9 h post-HSV infection, [14C]dThd (0.16 μCi/ml; 1 μM dThd) and different amounts of 5'-Et-dThd were added to the medium depending on experimental conditions. At the end of the labeling period (1 h), the cells were pelleted by centrifugation, washed with phosphate-buffered-saline (PBS) and resuspended in a small volume of PBS. Aliquots were then pipetted directly onto DE81 discs which were immediately washed in 100% EtOH. The DE81 discs were washed two additional times in 100% EtOH, and then radioactivity associated with the discs was measured by scintillation counting in 5 ml of aqueous counting fluid. In this manner, total intracellular dThd kinase activity was determined from the sum of radioactive acid soluble dThd nucleotides plus the acid insoluble dTMP associated with DNA, both precipitated directly on the DE81 discs.

[2] = test system: mock infected HeLa S3 cells; test: Intracellular dThd phosphorylation; assay type: cell-based; details: increasing amounts of 5'-Et-dThd
Procedure: as §1

[3] = test system: HSV-1-infected HeLa S3 cells; test: Intracellular dThd phosphorylation; assay type: cell-based; details: 25 μM, 9 h post infection, 1 h labeling
Procedure: as §1

[4] = test system: HSV-2-infected HeLa S3 cells; test: Intracellular dThd phosphorylation; assay type: cell-based; details: 25 μM, 9 h post infection, 1 h labeling
Procedure: as §1

[5] = test system: dTTP pool of HSV-1-infected HeLa S3 cells; test: dNTP pool assay; assay type: cell-based; details: 100 μM, 12 h post infection
Source text: (§2) dNTP pool assay. dNTP pool measurements were done as described by Williams, M. W., Chang, C. H. and Cheng, Y.-C. (J. Biomed. Biophys. Meth. 1:153-1 62 (1979)). 5'-Et-dThd alone had no effect on the dNTP pool assay.

[6] = test system: dNTP pools of HSV-1-infected HeLa BU cells; test: dNTP pool assay; assay type: cell-based
Source text: as §2

[7] = test system: dTTP pools of HSV-1 (strain MDK)-infected HeLa BU cells; test: dNTP pool assay; assay type: cell-based; details: 100 μM
Source text: as §2

[8] = biological target: T1, HSV-2 (333) dThd kinase in infected HeLa BU cells (Human herpesvirus 2, UniProt P04407); test: Intracellular dThd kinase activity ([14C]dThd phosphorylation); assay type: cell-based, HSV-2 (strain 333)
T1 construct: kinases were extracted from dThd kinase-deficient HeLa BU cells infected with HSV-1 (strain KOS) and HSV-2(strain 333); endogenous in cells; host or cells: HeLa BU cells (dThd kinase deficient) infected with HSV-2 (strain 333)
T1 sequence (P04407 whole entry): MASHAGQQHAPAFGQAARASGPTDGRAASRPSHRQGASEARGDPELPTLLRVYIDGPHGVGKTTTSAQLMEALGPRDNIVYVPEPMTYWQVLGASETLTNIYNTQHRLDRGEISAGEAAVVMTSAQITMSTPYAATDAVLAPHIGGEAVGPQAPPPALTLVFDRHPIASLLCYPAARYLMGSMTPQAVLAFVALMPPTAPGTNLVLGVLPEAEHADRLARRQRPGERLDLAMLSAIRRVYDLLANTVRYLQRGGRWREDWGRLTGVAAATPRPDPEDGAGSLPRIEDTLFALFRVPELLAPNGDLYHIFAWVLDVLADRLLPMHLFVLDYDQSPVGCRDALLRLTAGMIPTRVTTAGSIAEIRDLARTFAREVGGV
Procedure: as §1

[9] = biological target: T2, human cytosolic dThd kinase (Homo sapiens, UniProt P04183); test: dThd kinase assay in vitro; assay type: biochemical; details: purified enzyme; concentrations as high as 150 μM; 100 μM [14C]dThd
T2 construct: cellular cytosolic dThd kinase used to determine the Ki values was isolated from KB6B cells; endogenous in cells; host or cells: KB6B cells
T2 sequence (P04183 whole entry): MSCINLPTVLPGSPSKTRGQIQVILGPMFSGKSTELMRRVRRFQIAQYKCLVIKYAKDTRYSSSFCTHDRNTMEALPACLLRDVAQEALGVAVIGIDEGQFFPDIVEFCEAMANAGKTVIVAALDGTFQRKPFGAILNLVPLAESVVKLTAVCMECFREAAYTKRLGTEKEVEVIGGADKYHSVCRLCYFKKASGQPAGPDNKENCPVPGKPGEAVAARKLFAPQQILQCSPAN
Source text: (§3) Enzyme purification, enzyme assays, IC50 and Ki determinations. The cellular cytosolic dThd kinase used to determine the Ki values was isolated from KB6B cells. The HSV-1 and HSV-2dThd kinases were extracted from dThd kinase-deficient HeLa BU cells infected with HSV-1 (strain KOS) and HSV-2(strain 333), respectively. All of the dThd kinases were purified using affinity column chromatography procedures described by Lee, L. S. and Cheng, Y.-C. (J. Biol. Chem. 251:2600-2604 (1976)). The dThd kinase assay used was the same as that described by Cheng, Y.-C. & Ostrander, M. (J. Biol. Chem. 251:2605-2610 (1976)). Incubations were conducted at 37° C. for 60 min and the Ki and 50% […] concentration (IC50) values were determined as described by Cheng, Y.-C. and Prusoff, W. H. (Biochem. Pharmacol. 22:3099-3108 (1976)).

[10] = biological target: HSV-1 (KOS) dThd kinase (Human alphaherpesvirus 1 strain KOS, UniProt P17402); test: dThd kinase assay in vitro; assay type: biochemical, HSV-1 (strain KOS)
Chain of HSV-1 (KOS) dThd kinase (P17402 whole entry, looked up): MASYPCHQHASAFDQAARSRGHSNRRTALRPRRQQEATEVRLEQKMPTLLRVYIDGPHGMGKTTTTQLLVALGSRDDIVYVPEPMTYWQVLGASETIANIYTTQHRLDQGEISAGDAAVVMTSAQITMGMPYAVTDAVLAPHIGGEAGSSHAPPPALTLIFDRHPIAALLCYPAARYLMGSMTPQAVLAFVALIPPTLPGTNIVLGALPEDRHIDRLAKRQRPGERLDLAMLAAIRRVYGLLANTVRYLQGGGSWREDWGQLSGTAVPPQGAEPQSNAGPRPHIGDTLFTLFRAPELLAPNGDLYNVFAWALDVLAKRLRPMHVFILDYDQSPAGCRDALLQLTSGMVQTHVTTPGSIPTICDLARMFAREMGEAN
Source text: as §3

[11] = test system: mammalian host DNA synthesis; test: Host DNA synthesis by 32PO4 incorporation; assay type: cell-based; details: 100 μM
[12] = biological target: T3, host dTMP kinase (Homo sapiens, UniProt P23919); test: dTMP (thymidylate) kinase assay, crude extracts of HSV-2 (333)-infected HeLa BU cells; assay type: biochemical; details: 25 μM dTMP substrate, read-out: IC50 of dTMP kinase (reflects host dTMP kinase activity)
T3 construct: endogenous in cells; host or cells: HSV-2 (333)-infected HeLa BU cells, extract
T3 sequence (P23919 whole entry): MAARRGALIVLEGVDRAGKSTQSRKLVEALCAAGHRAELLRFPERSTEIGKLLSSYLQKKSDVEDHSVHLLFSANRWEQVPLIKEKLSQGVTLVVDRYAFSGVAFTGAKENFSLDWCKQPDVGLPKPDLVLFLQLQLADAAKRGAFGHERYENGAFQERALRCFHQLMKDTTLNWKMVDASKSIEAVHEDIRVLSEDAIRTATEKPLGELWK
Procedure: The thymidylate kinase and synthase assays were performed according to known procedures (see, Cheng, Y.-C. & Prusoff, W. H. (1974) Anal. Biochem. 60:545-550; Roberts, D. (1966) Biochemistry 5:3546-3548; Dolnick, B. J. & Cheng, Y. C. (1977) J. Biol. Chem. 252:7697-7703). dThd phosphorylase activity was determined by monitoring conversion of [^14 C]dThd to [14 C] thymine using high performance liquid chromatography (HPLC). Briefly, after a 30 min incubation of enzyme extract with radiolabeled dThd at 37° C., the reaction was stopped by addition of 25% trichloroacetic acid. After neutralization and centrifugation, the supernatants were loaded on to an Alltech Lichrosorb RP-18 column, and the column was eluted at a rate of 1 ml/min with 5 mM KH2 PO4 (pH 3.5)--10% methanol. Fractions of 1 ml were collected and radioactivity associated with dThd and thymine (as previously determined by retention times of authentic markers measured by their absorbance at 265 nm) was measured by scintillation counting. For evaluation of whether 5'-Et-dThd could serve substrate for dThd phosphorylase, reactions were carried out as described as above, except that 5'-Et-dThd was used instead of [^14 C]dThd; metabolites were then analyzed by HPLC as described above.

Chain of HSV-1 (KOS) dThd kinase in infected HeLa BU cells (P17402 whole entry, looked up): as the sequence (P17402 whole entry, looked up) above

Substance: 5'-ethynylthymidine [5'-Et-dThd]
- dThd phosphorylating activity, % of untreated control ([1]; 25 μM, HSV-1-infected HeLa BU, 9 h post infection, 1 h labeling): 12.5%
- inhibition of dThd kinase-mediated [14C]dThd phosphorylation ([1]; 100 μM, HSV-1-infected HeLa BU cells, 9 h post infection): 97%
- IC50 ([1]; HSV-1 KOS, intracellular [14C]dThd phosphorylation, HeLa BU cells): 3 µM
- accumulation of intracellular phosphorylated [14C]-dThd metabolites [2]: increased slightly
- dThd phosphorylating activity, % of untreated control [3]: 25%
- dThd phosphorylating activity, % of untreated control [4]: 88%
- reduction of dTTP pool vs untreated infected control [5]: 80%
- effect on dTTP pool of HSV-infected mammalian cells ([6]; 100 μM): significantly decreases
- reduction of dTTP pool vs untreated infected control ([6]; 100 μM, HSV-1-infected HeLa BU cells, 12 h post infection): 95%
- effect on dATP, dCTP and dGTP pools ([6]; 9 h HSV-1 (KOS)-infected HeLa BU cells): not significantly affected; also recorded: no significant effect
- inhibition of dTTP pools [7]: 45%
- dThd phosphorylating activity, % of untreated control ([8]; 25 μM, HSV-2-infected HeLa BU, 9 h post infection, 1 h labeling): 80%
- inhibition of dThd kinase-mediated [14C]dThd phosphorylation ([8]; 100 μM, HSV-2-infected HeLa BU cells, 9 h post infection): 50%
- IC50 ([8]; HSV-2 333, intracellular [14C]dThd phosphorylation, HeLa BU cells): 100 µM
- effect on human cytosolic dThd kinase [9]: does not exhibit inhibitory activity; also recorded: no effect; also recorded: No demonstrable effects
- inhibition of dThd kinase activity ([10]; 10 μM 5'-Et-dThd, purified enzyme, 100 μM [14C]dThd): 50%
- Ki ([10]; HSV-1 KOS, affinity column-purified dThd kinase, ± standard deviation): 0.09 µM
- IC50 ([10]; HSV-1 KOS, enzyme extracts of infected HeLa BU cells, 100 μM dThd): 6 µM
- type of inhibition (kinetic studies) ([10]; with respect to dThd): competitive inhibitor
- effect on mammalian host DNA synthesis [11]: no effect
- IC50 [12]: 60 µM
